Data on 57 compounds can be found in ChEMBL document CHEMBL3046576, “Rational exploration of new pyridinium-based HSP90 inhibitors tailored to thiamine structure” (Med Chem Res, 2012).

Experiment [1] addresses T1, Heat shock protein HSP 90-alpha (Homo sapiens, UniProt P07900). The experiment in a line: Inhibition of recombinant Homo sapiens (human) Hsp90 alpha ATPase activity assessed as inorganic phosphate release at 10 uM by malachite green colorimetric method.
For experiment [2], the target named is T1, Heat shock protein HSP 90-alpha. In words: Inhibition of recombinant Homo sapiens (human) Hsp90 alpha ATPase activity assessed as inorganic phosphate release by malachite green colorimetric method.

Active and inactive are the calls of the source. The rule behind the calls is not given here.

Consider `COc1ccc(NC(=O)c2ccc[n+](CC(=O)Nc3ccc(Cl)cc3)c2)cc1`, for which the inhibition in experiment [1] was 10%.

As to `O=C(C[n+]1cccc(C(=O)Nc2ccc(Cl)cc2)c1)Nc1ccc(Cl)cc1`, the inhibition result in experiment [1] is “inactive”.

Consider `O=C(C[n+]1ccccc1)Nc1ccc(Cl)cc1`, for which the inhibition in experiment [1] was determined as 3%.

Turning to `Cc1ccc(NC(=O)C[n+]2ccccc2)cc1`, the inhibition entry in experiment [1] is “inactive”.

For the compound `Cc1cccc(NC(=O)C[n+]2cccc(C(N)=O)c2)c1`, in experiment [2], the IC50 was 13.2 µM. In addition, the inhibition in experiment [1] was 34%.

As for `COc1ccc(NC(=O)C[n+]2cccc(C(=O)Nc3ccc(SC)cc3)c2)cc1`, the inhibition in experiment [1] was 29%.

For the compound `N=C(N)NS(=O)(=O)c1ccc(NC(=O)C[n+]2cccc(C(N)=O)c2)cc1`, the inhibition in experiment [1] was found to be 29%.

In the case of `CSc1ccc(NC(=O)C[n+]2cccc(C(=O)Nc3ccc(Cl)cc3)c2)cc1`, the inhibition in experiment [1] is 24%.

On to `NS(=O)(=O)c1ccc(NC(=O)C[n+]2cccc(C(=O)Nc3ccc(Cl)cc3)c2)cc1`, for which the inhibition in experiment [1] came out at 3%.

With `COc1ccc(NC(=O)c2ccc[n+](CC(=O)Nc3ccc(C)cc3)c2)cc1`, in experiment [1], the inhibition is 20%.

With `COc1ccc(NC(=O)C[n+]2cccc(C(=O)Nc3ccccc3)c2)cc1`, in experiment [1], the inhibition came to 4%.

With `NS(=O)(=O)c1ccc(NC(=O)C[n+]2cccc(C(=O)Nc3ccccc3)c2)cc1`, the IC50 in experiment [2] was 26.6 µM. Further, in experiment [1], the inhibition worked out at 47%.

For the compound `C=CCNC(=O)C[n+]1cccc(C(N)=O)c1`, the inhibition entry in experiment [1] is “inactive”.

`O=C(C[n+]1ccccc1)Nc1ccccc1`: the inhibition in experiment [1] stood at 3%.

With `NC(=O)c1ccc[n+](Cc2ccccc2)c1`, in experiment [1], the inhibition worked out at 10%.

Regarding `NC(=O)c1ccc[n+](CC(=O)Nc2ccc(Cl)cc2)c1`, the inhibition in experiment [1] was 24%.

In the case of `Cc1cccc(NC(=O)c2ccc[n+](CC(=O)Nc3ccc(Cl)cc3)c2)c1`, the inhibition in experiment [1] is 24%.

For the compound `Cc1ccc(NC(=O)C[n+]2cccc(C(=O)Nc3cccc(C)c3)c2)cc1`, the inhibition in experiment [1] turned out to be 16%.

`Cc1ncc(C[n+]2csc(CCO)c2C)c(N)n1` [THIAMINE ION]: the IC50 in experiment [2] was 12.5 µM. The inhibition in experiment [1] is 40%.

Regarding `O=C(C[n+]1ccccc1)NCc1ccccc1`, the IC50 in experiment [2] came out at 49.6 µM. For the same compound, in experiment [1], the inhibition stood at 36%.

With `CSc1ccc(NC(=O)C[n+]2cccc(C(=O)Nc3ccccc3)c2)cc1`, the inhibition in experiment [1] was 14%.

Consider `C=CCNC(=O)c1ccc[n+](CC(=O)Nc2ccc(C)cc2)c1`, for which the inhibition in experiment [1] was found to be 23%.

As to `CC(=O)NS(=O)(=O)c1ccc(NC(=O)C[n+]2cccc(C(N)=O)c2)cc1`, in experiment [2], the half-inhibitory concentration (IC50) was 12.7 µM. Besides, the inhibition in experiment [1] amounted to 36%.

Consider `Cc1cccc(NC(=O)C[n+]2ccccc2)c1`, for which the inhibition in experiment [1] was determined as 12%.

On to `NS(=O)(=O)c1ccc(NC(=O)C[n+]2cccc(C(=O)Nc3ccc([N+](=O)[O-])cc3)c2)cc1`, for which, in experiment [1], the inhibition was found to be 8%.

On to `CSc1ccc(NC(=O)c2ccc[n+](CC(=O)Nc3ccc(C)cc3)c2)cc1`, for which the inhibition in experiment [1] amounted to 18%.

Consider `NC(=O)c1ccc[n+](CC(=O)Nc2ccc([N+](=O)[O-])cc2)c1`, for which, in experiment [2], the IC50 was determined as 7.6 µM. Further, the inhibition in experiment [1] is 62%.

Consider `Cc1ccc(NC(=O)C[n+]2cccc(C(N)=O)c2)cc1`, for which the IC50 in experiment [2] worked out at 42.2 µM. For the same compound, the inhibition in experiment [1] came to 34%.

As for `NC(=O)c1ccc[n+](CC(=O)Nc2ccc(S(N)(=O)=O)cc2)c1`, the IC50 in experiment [2] came to 12 µM. In experiment [1], the inhibition worked out at 32%.

Take `N=C(N)NS(=O)(=O)c1ccc(NC(=O)C[n+]2ccccc2)cc1`: the inhibition in experiment [1] stood at 20%.

`NC(=O)c1ccc[n+](CCc2ccccc2)c1`: the inhibition in experiment [1] is 9%.

Turning to `NC(=O)c1ccc[n+](CC(=O)NCCc2ccccc2)c1`, the IC50 in experiment [2] was 16.4 µM. For the same compound, the inhibition in experiment [1] stood at 46%.

Regarding `COc1ccc(NC(=O)C[n+]2ccccc2)cc1`, the IC50 in experiment [2] was 13.3 µM. Further, the inhibition in experiment [1] is 43%.

Take `C=CCNC(=O)c1ccc[n+](CC(=O)Nc2ccc(OC)cc2)c1`: the 50% inhibitory concentration (IC50) in experiment [2] was determined as 48.5 µM. Further, the inhibition in experiment [1] was 32%.

Consider `O=C(C[n+]1cccc(C(=O)Nc2ccc(Cl)cc2)c1)Nc1ccc([N+](=O)[O-])cc1`, for which the inhibition in experiment [1] is 24%.

Regarding `C=CCNC(=O)c1ccc[n+](CC(=O)Nc2ccc(Cl)cc2)c1`, in experiment [1], the inhibition worked out at 1.6%.

As for `O=C(C[n+]1cccc(C(=O)Nc2ccccc2)c1)Nc1ccc(Cl)cc1`, the inhibition in experiment [1] is 17%.

On to `Cc1ccccc1NC(=O)C[n+]1cccc(C(N)=O)c1`, for which, in experiment [1], the inhibition was 8%.

Turning to `Cc1ccc(NC(=O)C[n+]2cccc(C(=O)Nc3ccc([N+](=O)[O-])cc3)c2)cc1`, in experiment [1], the inhibition was 21%.

As to `COc1ccc(NC(=O)c2ccc[n+](CC(=O)Nc3ccc([N+](=O)[O-])cc3)c2)cc1`, in experiment [1], the inhibition result is “inactive”.

For `O=C(C[n+]1cccc(C(=O)Nc2ccccc2)c1)Nc1ccc([N+](=O)[O-])cc1`, the inhibition in experiment [1] was 11%.

Regarding `CSc1ccc(NC(=O)c2ccc[n+](CC(=O)Nc3ccc(Cl)cc3)c2)cc1`, in experiment [1], the inhibition was 19%.

On to `CSc1ccc(NC(=O)c2ccc[n+](CC(=O)Nc3ccc([N+](=O)[O-])cc3)c2)cc1`, for which, in experiment [1], the inhibition is 3%.

On to `C=CCNC(=O)c1ccc[n+](CC(=O)Nc2ccc([N+](=O)[O-])cc2)c1`, for which the inhibition in experiment [1] stood at 20%.

As for `Cc1ccc(NC(=O)C[n+]2cccc(C(=O)Nc3ccc(Cl)cc3)c2)cc1`, the IC50 in experiment [2] was 17.3 µM. Also, the inhibition in experiment [1] amounted to 48%.

On to `COc1ccc(NC(=O)C[n+]2cccc(C(=O)Nc3ccc(OC)cc3)c2)cc1`, for which the inhibition in experiment [1] is 3%.

As for `COc1ccc(NC(=O)c2ccc[n+](CC(=O)Nc3ccc(S(N)(=O)=O)cc3)c2)cc1`, the inhibition in experiment [1] is 23%.

Take `COc1ccc(NC(=O)C[n+]2cccc(C(N)=O)c2)cc1`: in experiment [1], the inhibition is 20%.

Turning to `Cc1ccc(NC(=O)C[n+]2cccc(C(=O)Nc3ccccc3)c2)cc1`, in experiment [2], the IC50 stood at 7.4 µM. The inhibition in experiment [1] worked out at 59%.

Consider `COc1ccc(NC(=O)C[n+]2cccc(C(=O)Nc3ccc([N+](=O)[O-])cc3)c2)cc1`, for which, in experiment [1], the inhibition result was “inactive”.

Consider `O=C(C[n+]1ccccc1)Nc1ccc([N+](=O)[O-])cc1`, for which, in experiment [2], the half-inhibitory concentration (IC50) stood at 14.9 µM. Further, the inhibition in experiment [1] worked out at 34%.

Take `CC(=O)NS(=O)(=O)c1ccc(NC(=O)C[n+]2ccccc2)cc1`: the IC50 in experiment [2] worked out at 12.7 µM. Also, the inhibition in experiment [1] was 46%.

As for `NS(=O)(=O)c1ccc(NC(=O)C[n+]2ccccc2)cc1`, the inhibition in experiment [1] is 7%.

As to `NC(=O)c1ccc[n+](CC(=O)NCc2ccccc2)c1`, the inhibition in experiment [1] was found to be 20%.

With `NC(=O)c1ccc[n+](CC(=O)Nc2ccccc2)c1`, the IC50 in experiment [2] was 13.3 µM. Besides, the inhibition in experiment [1] amounted to 37%.

With `CCOC(=O)C[n+]1cccc(C(N)=O)c1`, the inhibition in experiment [1] turned out to be 13%.

For `COc1ccc(NC(=O)C[n+]2cccc(C(=O)Nc3ccc(Cl)cc3)c2)cc1`, the inhibition in experiment [1] was determined as 2%.
